Measurements as given in patent publication US20230026232A1, “AHR INHIBITORS AND USES THEREOF” (Ikena Oncology, Inc., priority 2019, published 2023).

Tests used:
AHR = molecular target: T1, AHR (Homo sapiens, UniProt P35869); assay: HepG2 DRE-Luc reporter assay, VAF347-stimulated luciferase expression; assay type: cell-based; set-up: endogenous in cells; host or cells: HepG2 DRE-Luc reporter cell line; details: 80 nM VAF347, n=2
T1 sequence (P35869 11-848): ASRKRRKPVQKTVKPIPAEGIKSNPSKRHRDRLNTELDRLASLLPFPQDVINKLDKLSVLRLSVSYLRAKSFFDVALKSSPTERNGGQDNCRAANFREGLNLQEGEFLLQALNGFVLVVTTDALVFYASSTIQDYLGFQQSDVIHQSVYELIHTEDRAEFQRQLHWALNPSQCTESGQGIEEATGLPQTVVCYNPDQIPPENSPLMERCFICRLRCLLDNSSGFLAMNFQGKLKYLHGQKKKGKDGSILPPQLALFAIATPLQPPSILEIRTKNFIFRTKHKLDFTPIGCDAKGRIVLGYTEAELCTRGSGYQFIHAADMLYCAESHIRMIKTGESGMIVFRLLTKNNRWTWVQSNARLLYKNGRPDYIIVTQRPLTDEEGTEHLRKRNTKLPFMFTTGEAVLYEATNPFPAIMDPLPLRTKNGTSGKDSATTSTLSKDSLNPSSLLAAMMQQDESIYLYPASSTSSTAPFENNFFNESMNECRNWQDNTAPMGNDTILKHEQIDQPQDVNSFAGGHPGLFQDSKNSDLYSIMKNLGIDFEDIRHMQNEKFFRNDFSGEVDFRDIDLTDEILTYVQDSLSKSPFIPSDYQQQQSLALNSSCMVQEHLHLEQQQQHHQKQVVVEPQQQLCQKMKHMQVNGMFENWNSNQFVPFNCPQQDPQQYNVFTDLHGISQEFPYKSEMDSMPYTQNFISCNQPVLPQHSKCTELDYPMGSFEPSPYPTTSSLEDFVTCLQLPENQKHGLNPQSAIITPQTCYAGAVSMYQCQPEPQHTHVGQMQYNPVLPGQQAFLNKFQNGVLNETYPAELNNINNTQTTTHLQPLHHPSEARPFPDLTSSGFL
Protocol: In vitro experiments were conducted to examine the inhibitory activity of Compound A for AHR-mediated transcriptional activation in the HepG2 DRE-Luc reporter cell line. This human hepatoma cell line stably expresses a luciferase reporter gene under control of AHR-responsive DRE enhancer elements (Han, 2004). HepG2 DRE-Luc reporter cells were treated with 80 nM VAF347 to activate AHR.
The inhibitory activity of the human Compound A metabolites, Compound B and Compound C was also determined in the HepG2 DRE-Luc cell line. Reporter cells were stimulated with 80 nM VAF347 and each metabolite at multiple concentrations.

[1] = Phase 1 dose-escalation study: interim cohort pharmacokinetics; assay type: in vivo, human; details: for dose proportionality of PK: Cycle 2 Day 1 (C2D1)
Protocol: Serial blood samples are obtained to characterize the plasma PK of Compound A and its major active metabolites. The initial sampling strategy is based on the predicted human PK of this compound. If in the course of evaluating the PK, it is determined that an alternative sampling scheme would be more informative, then that alternative sampling scheme may be implemented if the total amount of blood and blood draws obtained for PK is not increased. Moreover, the total number of samples may be decreased at any time if the initial sampling scheme is considered unnecessarily intensive.
Interim cohort pharmacokinetics were assessed on parent (Compound A) and two active metabolites (Compound B and Compound C). […] Compound B metabolite ratio is increased on C2D1 in cohorts above 200 mg dosages. […] Without wishing to be bound or limited by theory, elimination rate limited kinetics likely contributing to the accumulation of Compound B through on-target inhibition of CYP1A1.

SMILES: CC(C)(O)c1cnn2c(N[C@@H]3CCc4[nH]c5ccccc5c4C3)nc(-c3cncc(F)c3)nc12 [Compound B]
- IC50 (AHR): 23 nM
- ratio to Compound A on C2D1 ([1]; 400 mg and 800 mg dose): 1.3-1.4 × parent
- dose proportionality of PK [1]: greater than dose proportional
- accumulation with repeat dosing ([1]; repeat dosing above 200 mg): Accumulation of Compound B observed
- AUC compared with Compound A ([1]; repeated dosing, 2/3 subjects at 400 and 800 mg): greater than Compound A

SMILES: C=C(C)c1cnn2c(N[C@@H]3CCc4[nH]c5ccccc5c4C3)nc(-c3cncc(F)c3)nc12 [Compound C]
- IC50 (AHR): 213 nM
- ratio to Compound A (AUC) ([1]; 400 mg and 800 mg dose): 15-20 % of parent
- dose proportionality of PK [1]: greater than dose proportional
